Assay results reported in article PMC11971462, “Generation and validation of a novel multitarget small molecule in glioblastoma” (Cell Death & Disease, 2025).

System: GNS166 cells
Assay: Label-free proteomics differential expression
Format: cell-based, human
Procedure: Proteomic studies were performed by the Proteomics Facility of the CIC bioGUNE by label-free relative quantification on nLC MS/MS. […] In both approaches, the top 20 enriched terms were plotted and the pathways were clustered using divisive hierarchical clustering based on pairwise Jaccard distances.

C#CCN(Cc1cc2cc(OCCCN3CCCCC3)ccc2n1S(=O)(=O)c1ccccc1)C(=O)CCCCCCC(=O)NO [DDI]
LogFC CAF1B_HUMAN (protein Q13112 GN=CHAF1B): -1.512
LogFC STK3_HUMAN (protein Q13188 GN=STK3): 0.6701
Direction MD2L1_HUMAN (protein Q13257): Down
LogFC MD2L1_HUMAN (protein Q13257): -1.113
LogFC PABP4_HUMAN (protein Q13310 GN=PABPC4): -0.5988
Direction MTA1_HUMAN (protein Q13330): Down
LogFC MTA1_HUMAN (protein Q13330): -1.705
Direction 2A5G_HUMAN (protein Q13362): Down
LogFC 2A5G_HUMAN (protein Q13362): -1.224
Direction SQSTM_HUMAN (protein Q13501): Down
LogFC SQSTM_HUMAN (protein Q13501): -1.0987
LogFC TBB3_HUMAN (protein Q13509 GN=TUBB3): 0.7942
LogFC PKD2_HUMAN (protein Q13563 GN=PKD2): -0.7081
LogFC TRA2A_HUMAN (protein Q13595 GN=TRA2A): -0.7095
LogFC TBB2A_HUMAN (protein Q13885 GN=TUBB2A): 0.9316
LogFC IDI1_HUMAN (protein Q13907 GN=IDI1): 0.7277
Direction CKAP5_HUMAN (protein Q14008): Down
LogFC CKAP5_HUMAN (protein Q14008): -0.6393
Direction PDE1C_HUMAN (protein Q14123): Down
LogFC PDE1C_HUMAN (protein Q14123): -1.117
Direction EIF3A_HUMAN (protein Q14152): Down
LogFC EIF3A_HUMAN (protein Q14152): -0.389
Direction UBP2L_HUMAN (protein Q14157): Down
LogFC UBP2L_HUMAN (protein Q14157): -0.8648
LogFC TTL12_HUMAN (protein Q14166 GN=TTLL12): 0.5228
Direction DOCK1_HUMAN (protein Q14185): Down
LogFC DOCK1_HUMAN (protein Q14185): -1.615
Direction DYHC1_HUMAN (protein Q14204): Down
LogFC DYHC1_HUMAN (protein Q14204): -0.3165
Direction NUCG_HUMAN (protein Q14249): Down
LogFC NUCG_HUMAN (protein Q14249): -2.036
Direction FLOT2_HUMAN (protein Q14254): Down
LogFC FLOT2_HUMAN (protein Q14254): -1.186
Direction GAS6_HUMAN (protein Q14393): Down
LogFC GAS6_HUMAN (protein Q14393): -2.504
LogFC PLSI_HUMAN (protein Q14651 GN=PLS1): 1.442
Direction SMC1A_HUMAN (protein Q14683): Down
LogFC SMC1A_HUMAN (protein Q14683): -0.5055
LogFC LPIN1_HUMAN (protein Q14693 GN=LPIN1): 0.9551
Direction UBP10_HUMAN (protein Q14694): Down
LogFC UBP10_HUMAN (protein Q14694): -0.9311
Direction KIF22_HUMAN (protein Q14807): Down
LogFC KIF22_HUMAN (protein Q14807): -3.469
LogFC CHD4_HUMAN (protein Q14839 GN=CHD4): -0.985
Direction IMB1_HUMAN (protein Q14974): Down
LogFC IMB1_HUMAN (protein Q14974): -0.6185
Direction CND2_HUMAN (protein Q15003): Down
LogFC CND2_HUMAN (protein Q15003): -1.758
LogFC SART3_HUMAN (protein Q15020 GN=SART3): -0.5999
Direction CND1_HUMAN (protein Q15021): Down
LogFC CND1_HUMAN (protein Q15021): -2.0518
Direction SNX17_HUMAN (protein Q15036): Down
LogFC SNX17_HUMAN (protein Q15036): -1.453
Direction SYK_HUMAN (protein Q15046): Down
LogFC SYK_HUMAN (protein Q15046): -0.4877
Direction OXA1L_HUMAN (protein Q15070): Down
LogFC OXA1L_HUMAN (protein Q15070): -1.062
LogFC PMVK_HUMAN (protein Q15126 GN=PMVK): 1.337
Direction PLEC_HUMAN (protein Q15149): Down
LogFC PLEC_HUMAN (protein Q15149): -0.7
LogFC NECT1_HUMAN (protein Q15223 GN=NECTIN1): -1.589
Direction LRC41_HUMAN (protein Q15345): Down
LogFC LRC41_HUMAN (protein Q15345): -1.0607
LogFC KS6A1_HUMAN (protein Q15418 GN=RPS6KA1): 1.988
LogFC PP1R7_HUMAN (protein Q15435 GN=PPP1R7): 0.5315
LogFC MARE2_HUMAN (protein Q15555 GN=MAPRE2): 3.286
LogFC CIP4_HUMAN (protein Q15642 GN=TRIP10): 1.0065
Direction PCH2_HUMAN (protein Q15645): Down
LogFC PCH2_HUMAN (protein Q15645): -0.9654
Direction MSMO1_HUMAN (protein Q15800): Down
LogFC MSMO1_HUMAN (protein Q15800): -0.8085
LogFC STXB2_HUMAN (protein Q15833 GN=STXBP2): 0.5821
Direction PKN2_HUMAN (protein Q16513): Down
LogFC PKN2_HUMAN (protein Q16513): -0.7145
Direction DDB1_HUMAN (protein Q16531): Down
LogFC DDB1_HUMAN (protein Q16531): -0.3715
LogFC DPYL2_HUMAN (protein Q16555 GN=DPYSL2): 0.9356
LogFC UBE2S_HUMAN (protein Q16763 GN=UBE2S): -1.229
LogFC CP51A_HUMAN (protein Q16850 GN=CYP51A1): -0.6587
LogFC CGT_HUMAN (protein Q16880 GN=UGT8): 1.956
LogFC TRXR1_HUMAN (protein Q16881 GN=TXNRD1): 0.6582
Direction NICA_HUMAN (protein Q92542): Down
LogFC NICA_HUMAN (protein Q92542): -1.398
Direction TM9S4_HUMAN (protein Q92544): Down
LogFC TM9S4_HUMAN (protein Q92544): -1.2661
LogFC TBCD5_HUMAN (protein Q92609 GN=TBC1D5): -0.4214
LogFC NU205_HUMAN (protein Q92621 GN=NUP205): -0.751
Direction PXDN_HUMAN (protein Q92626): Down
LogFC PXDN_HUMAN (protein Q92626): -0.8349
Direction AP2C_HUMAN (protein Q92754): Down
LogFC AP2C_HUMAN (protein Q92754): -1.895
Direction SYMPK_HUMAN (protein Q92797): Down
LogFC SYMPK_HUMAN (protein Q92797): -0.8433
LogFC KIFA3_HUMAN (protein Q92845 GN=KIFAP3): 1.431
Direction ARHG1_HUMAN (protein Q92888): Down
LogFC ARHG1_HUMAN (protein Q92888): -0.7775
Direction ARHG2_HUMAN (protein Q92974): Down
LogFC ARHG2_HUMAN (protein Q92974): -0.6456
LogFC USP9X_HUMAN (protein Q93008 GN=USP9X): 0.7813
Direction CUL5_HUMAN (protein Q93034): Down
LogFC CUL5_HUMAN (protein Q93034): -0.617
LogFC VPP1_HUMAN (protein Q93050 GN=ATP6V0A1): 1.447
Direction MED12_HUMAN (protein Q93074): Down
LogFC MED12_HUMAN (protein Q93074): -2.0643
Direction KPBB_HUMAN (protein Q93100): Down
LogFC KPBB_HUMAN (protein Q93100): -2.118
Direction SEC62_HUMAN (protein Q99442): Down
LogFC SEC62_HUMAN (protein Q99442): -2.138
LogFC VAT1_HUMAN (protein Q99536 GN=VAT1): 1.276
Direction NUP88_HUMAN (protein Q99567): Down
LogFC NUP88_HUMAN (protein Q99567): -0.8011
LogFC NEUS_HUMAN (protein Q99574 GN=SERPINI1): 4.964
LogFC DNJC7_HUMAN (protein Q99615 GN=DNAJC7): -0.8769
Direction MGST2_HUMAN (protein Q99735): Down
LogFC MGST2_HUMAN (protein Q99735): -1.016
